Source: patent publication US20180312539A1, “METHODS FOR PREPARING HIGH THROUGHPUT PEPTIDOMIMETICS, ORALLY BIOAVAILABLE DRUGS AND COMPOSITIONS CONTAINING SAME” (University of Southern California, priority 2011, published 2018)

Columns and labels:
[1] = target: T1, chymotrypsin (Bos taurus, UniProt P00766); assay: Protease resistance experiment, chymotrypsin digest; type: in vitro ADME
T1 construct: purchased Sigma
Procedure: Immobilized chymotrypsin and proteinase K purchased from Sigma.
Protease resistance enhancement was then tested.
Towards that end, three peptides were synthesized. […] The effects were dramatic and surprising.

[2] = Human microsome digests; type: in vitro ADME
Procedure: Pooled, mixed gender human microsomes containing cytochrome P450's were obtained from Xenotech. 100 μL of microsomes were added to 500 of PBS buffer containing 250 nmoles of peptide with 1% DMSO. 50 μL aliquots were removed at various time points and worked up in the same manner as the human serum digests.
Another vital area for the in vivo processing of drugs is the liver. All blood is eventually filtered through the liver, where various types of enzymes functionalize drugs for the purpose of excretion. […] These enzymes are largely involved in the oxidation of drugs, and can be found on the […]. Human liver microsomes are functional liver extract containing cytochrome P450s. Therefore half-life of modification of peptides by cytochrome P450s from exposure to human microsomes was examined. The results were similar to the human serum result in that both cyclization and N-methylation were necessary for significant enhancement of resistance to modification. […] This is interesting because the trait of protease resistance, not resistance to cytochrome P450 modification was a selection criteria.
A similar experiment was performed analyzing protease resistance to cytochrome P450 degradation. Peptide was incubated with human liver microsomes at 37° C. All peptides were highly protease resistant. […]

[3] = target: T2, Gαi1 (Homo sapiens, UniProt P63096); assay: TNT pulldown specificity analysis with radiolabeled Gα subunits; type: binding; settings: C-terminally biotinylated peptide on NeutrAvidin-agarose
T2 construct: made in house; host or cells: TNT (coupled in vitro transcription/translation), radiolabeled
Procedure: TNT pulldown experiments were carried out as previously described in Stoop and Craik (2003) Nat. Biotech 21:1063. […] Control NeutrAvidin-agarose was treated with DMSO alone. Binding reactions proceeded for 1 h at 4° C. followed by filtration and washing with 1× selection buffer. The matrix was analyzed by scintillation counting, and the percent bound was determined by the matrix counts divided by the total counts as determined by TCA precipitation. […] The peptide was immobilized on NeutrAvidin-agarose and used to pull down radiolabeled protein. […] This was true both for specificity within the Gα family as well as state specificity of Gαi1. In fact, there was a small enhancement of specificity for the target Gαi1 over a protein with nearly 85% sequence similarity, Gαi2. […] The ability to retain or enhance selectivity for a desired target is of tremendous importance for therapeutic and diagnostic development.

[4] = Human serum digests; type: in vitro ADME; settings: reconstituted human serum, 37° C
Procedure: Delipidated/lyophilized human serum was purchased from Thermo Scientific and reconstituted as per manufacturer's instructions. 250 nmoles of peptide in 50 μLs of sodium phosphate buffer (pH=8.0) with 10% DMSO was added to 1 mL of reconstituted serum and incubated at 37° C. 100 μL aliquots were taken at various time points and quenched in 300 μLs of acetonitrile. Samples were spun down and decanted to remove precipitate followed by dilution in water to 1.5 mLs. Samples were then analyzed by HPLC as described in the protease resistance experiment.
Delipidated/lyophilized human serum was purchased from Thermo Scientific and reconstituted as per manufacturer's instructions. 250 nmoles of peptide in 50 μL of sodium phosphate buffer (pH=8.0) with 10% DMSO was added to 1 mL of reconstituted serum and incubated at 37° C. 100 μL aliquots were taken at various time points and quenched in 300 μL of acetonitrile. Samples were spun down and decanted to remove precipitate followed by dilution in water to 1.5 mLs.
The human serum and human microsome stability of the Gαi1 binding SUPR peptide ([…] (SEQ ID NO: 7)) were compared to the peptides ability to bind to Her-2. Beginning with the human serum analysis, peptides were digested with 95% human serum at 37° C. Analysis was performed by HPLC. […] Therefore, intact peptide is only completely unmodified peptide. Digestions of SUPR, HMP, and PMP are show have lives very similar to SUPR. Digestion of PMP2 is in progress. Without being bound by theory, Applicants theorize that the fitting for HMP may have produced an artificially low half-life.

[5] = target: proteinase K (Parengyodontium album, UniProt P06873)
Procedure: Immobilized chymotrypsin and proteinase K purchased from Sigma. 250 nmoles of peptide in DMSO were added to 50 mM sodium phosphate buffer (pH=8.0) with a final DMSO concentration of 2%. […] The graph was generated by fitting the data to a one phase exponential decay equation (GraphPad Prism 5.0).
Protease resistance enhancement was then tested. The simplest solution for enhancing protease resistance would be the removal of amino acids recognized by protease K and chymotrypsin.
Next the role of each of the N-methyl alanines was analyzed independently. […] For example sequence modifications, including N-methylation would be accomplished one amino acid at a time, walking the peptide from low protease stability to high stability. Whether this is a viable approach for making a peptide like SUPR was investigated. Towards that end, Applicants walked back from SUPR peptide to something closer to cycGIBP, and to determine if there was a gradual decrease in protease resistance. Towards that end, three peptides were synthesized. Two of them contained only one NMA (alanine was substituted for NMA), and the other had no NMA. It was hypothesized that if one could walk back to cycGIBP, then one would expect the loss of a single N-methyl to have some effect on reducing protease resistance, but to still be better than cycGIBP.

Sequence of proteinase K (P06873 106-384): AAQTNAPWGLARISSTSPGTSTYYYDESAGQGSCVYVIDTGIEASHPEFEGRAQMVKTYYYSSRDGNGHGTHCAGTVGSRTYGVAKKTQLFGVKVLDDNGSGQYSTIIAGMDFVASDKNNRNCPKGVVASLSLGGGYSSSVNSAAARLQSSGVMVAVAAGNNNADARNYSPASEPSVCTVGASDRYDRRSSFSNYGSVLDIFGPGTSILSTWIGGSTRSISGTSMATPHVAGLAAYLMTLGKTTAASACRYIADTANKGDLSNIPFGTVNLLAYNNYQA
T2 sequence (P63096 whole entry): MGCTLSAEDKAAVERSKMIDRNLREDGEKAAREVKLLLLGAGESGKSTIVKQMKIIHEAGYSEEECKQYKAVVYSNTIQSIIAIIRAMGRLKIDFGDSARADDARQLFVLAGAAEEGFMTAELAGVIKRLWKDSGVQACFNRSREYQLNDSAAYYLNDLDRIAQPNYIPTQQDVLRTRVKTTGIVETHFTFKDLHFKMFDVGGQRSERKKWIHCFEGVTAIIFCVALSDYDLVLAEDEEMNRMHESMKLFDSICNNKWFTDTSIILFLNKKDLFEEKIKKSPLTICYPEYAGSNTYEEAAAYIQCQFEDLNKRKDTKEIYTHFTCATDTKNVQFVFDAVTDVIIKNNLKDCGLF

CSCC[C@@H]1NC(=O)CCCC(=O)NCCCC[C@@H](C(N)=O)NC(=O)[C@H](CO)NC(=O)[C@H](Cc2c[nH]c3ccccc23)NC(=O)[C@H](CCC(N)=O)NC(=O)[C@H](C)N(C)C(=O)[C@H](Cc2ccc(O)cc2)NC(=O)[C@H](CCC(=O)O)NC(=O)[C@H](Cc2ccc(O)cc2)NC(=O)[C@H](C)N(C)C(=O)[C@H](Cc2ccc(O)cc2)NC(=O)[C@H](Cc2ccccc2)NC1=O [cycSUPR]
fold more resistant to chymotrypsin ([1]; compared to CycGIBP): ~200 fold
digest sites found from chymotrypsin ([1]; five theoretical digest sites): two
resistance to cytochrome P450 degradation ([2]; human liver microsomes, 37° C (Experiment No. 4)): more preotease resistant than the Her-2 binding peptides
stability to human liver microsomes (cytochrome P450s) ([2]; versus cycGIBP or linSUPR): nearly an order of magnitude increase in stability
specificity within the Gα family and state specificity of Gαi1 [3]: retained specificity of its parent molecule
half-life [4]: 160 h
fold more resistant to proteinase K [5]: approximately 5200 fold
digest sites found from proteinase K ([5]; seven theoretical digest sites): 1
